The target in one data set is T1, microtubules (Sus scrofa, UniProt P02550+P02554).
T1 construct: purchased Cytoskeleton
The data set can be described thus: Addition of 1 to fully assembled microtubules. It is filed as biochemical. Conditions: final concentration 200 to 500 μM, added after 60 min polymerization. The source says: Tubulin polymerization assay in the presence of 1. In vitro tubulin polymerization reactions in (a) as prepared or (c) filtered reaction cocktail without 1 (control) or with different concentrations of 1. The amount of microtubule is in proportion to optical density at 340 nm. The calculated polymerization rate (Vmax) and the final tubulin polymer mass vs concentrations of 1 from tubulin polymerization in (b) as prepared or (d) filtered reaction cocktail. Negative stained TEM images of molecular aggregates of 1 binding with tubulin. Buffer (control) or 1 (final concentration at 200 to 500 μM) was introduced into reaction cocktail containing fully assembled microtubule (after 60 min of polymerization). The amount of microtubule remain unchanged after 30 min. (e) Molecular aggregates of 1 (400 μM) incubated with tubulins heterodimers in general tubulin buffer. Scale bar=40 nm. White arrows point at tubulin clusters on the molecular aggregates of 1. […]
Microtubules are highly dynamic, growing and shrinking at a constant rate. To determine whether molecular aggregates of 1 achieve the inhibition of microtubule formation through preventing microtubule growth or accelerating microtubule shrinkage, we applied 1 to the polymerization mixture after most of tubulin heterodimers already formed microtubules (60 min of pre-incubation) and monitored the change of microtubules.

A further data set concerns U87MG. Description: Cell viability assay (MTT), U87MG. In kind it is cell-based. On the procedure: (§1) Cells in exponential growth phase were seeded in a 96 well plate at a concentration of 50,000 cell/well. The cells were allowed to attach to the wells for 24 h at 37° C., 5% CO2, then the culture medium was removed and 100 μL new culture medium containing 1 at gradient concentrations was placed into each well. After culturing at 37° C., 5% CO2 for desired time, each well was added by 10 μL of 5 mg/mL MTT 43-(4,5-Dimethylthiazol-2-yl)-2,5-diphenyltetrazolium bromide), and the plated cells were incubate at dark for 4 h. 100 μL 10% SDS with 0.01 M HCl was added to each well to stop the reduction reaction and to dissolve the purple. After incubation of the cells at 37° C. for overnight, the viability is measured. Data represent the mean±standard deviation of three independent experiments.
(§2) The estimation of the threshold concentration of aggregation (320-340 μM) for 1 allows us to examine the cytotoxicity of 1 in monomer and molecular aggregate forms. We first tested the cytotoxicity of 1 towards HeLa cells, the most widely studied cancer cell line, below and above the threshold concentration.

Data set [1] in a line: Thioflavin T fluorescence quantification of aggregates of 1. In kind it is physicochemical. The note with it: ThT emission, PBS buffer.
A further data set has as its system HepG2. The data set can be described thus: Cell viability assay (MTT), HepG2. It is filed as cell-based. As for the experimental part:
as §1, §2

A further data set concerns PC12. The data set can be described thus: Cell viability assay (MTT), PC12 neuronal cell line. It is filed as cell-based. On the procedure: (§3) FIG. 10 depicts the long term cytotoxicity of 1 on PC12 cells. Related to FIG. 2. (a) MTT viability test of cell incubated with gradient concentration of 1 for up to 7 days without changing medium. Data are presented as mean±SD of three independent experiments. (b) Intracellular concentration of 1 in PC12 cells treated with 1 for 12 h at 37° C. measured by LC-MS (left bar=400 μM; right bar=300 μM). (c) Cells were subcultured and re-seeded with new medium containing the same concentration of 1 (0 for control group and 400 μM for test group) every 4 days. Data are presented as mean±SD of three independent experiments.
as §1, §2

Experiment in data set [2]: as above
The note with it: rat, PC12 cells; 400 and 500 μM, 7 days. In kind it is cell-based. As for the experimental part:
as §3, §1, §2

The next data set deals with T2, actin (Homo sapiens, UniProt P60709).
T2 construct: snap freeze and thaw for 3 cycles to lyse the cells; endogenous in cells; host or cells: HeLa cell lysate
The data set can be described thus: Hydrogel based protein pull-down assay, actin. It is filed as binding. The note with it: hydrogel 10 mM, HeLa cell lysate, Western blot. As for the experimental part:
(§4) 4×10^7 of HeLa cells were scrapped from petri dish and washed with PBS buffer for 3 times then centrifuged at 300 g for 5 minutes. The collected cell pellet was mixed with phosphate buffer (100 mM) then snap freeze and thaw for 3 cycles to lyse the cells. The cell lysate was clarified by centrifugation at 12,000 g for 20 min at 4° C. to remove the whole cells, nuclei and large mitochondria. 50 μL of the supernatant lysate was gently mixed with 30 μL hydrogel of 1 (10 mM in PBS buffer, pH 7.6) on rotator at RT for 30 min. The hydrogel was collected by centrifugation (12,000 g, 5 min, 4° C.) and the supernatant was collected and placed on ice before analysis. The hydrogel was washed three times by gently mixing with 50 μL of the washing buffer (50 mM phosphate buffer pH 7.6 supplemented with 150 mM NaCl) on rotator at RT for 10 min followed by separation on centrifuge (12,000 g, 5 min, 4° C.). Supernatants were collected and placed on ice before analysis. Finally, the remaining hydrogel was dissolved using 1:1 washing buffer and 5× Laemeli buffer. All other samples were mixed with 5× Laemeli buffer (final concentration 2×) before SDS-PAGE.
(§5) That 1 enters the cells to affect cell cycle, cell migration, and eventually cell viability implies the interactions between the aggregates of 1 and certain intracellular proteins. […]
A general note: Immunoblotting shows a protein as a band on a membrane.

For the next data set, the system named is HeLa cells. The data set can be described thus: Cell viability assay (MTT), HeLa cells. In kind it is cell-based. On the procedure:
as §1, §2

Another data set deals with T3, tubulin (Homo sapiens, UniProt P68366+P68371).
T3 construct: snap freeze and thaw for 3 cycles to lyse the cells; endogenous in cells; host or cells: HeLa cell lysate
T3 sequence (P68366 whole entry): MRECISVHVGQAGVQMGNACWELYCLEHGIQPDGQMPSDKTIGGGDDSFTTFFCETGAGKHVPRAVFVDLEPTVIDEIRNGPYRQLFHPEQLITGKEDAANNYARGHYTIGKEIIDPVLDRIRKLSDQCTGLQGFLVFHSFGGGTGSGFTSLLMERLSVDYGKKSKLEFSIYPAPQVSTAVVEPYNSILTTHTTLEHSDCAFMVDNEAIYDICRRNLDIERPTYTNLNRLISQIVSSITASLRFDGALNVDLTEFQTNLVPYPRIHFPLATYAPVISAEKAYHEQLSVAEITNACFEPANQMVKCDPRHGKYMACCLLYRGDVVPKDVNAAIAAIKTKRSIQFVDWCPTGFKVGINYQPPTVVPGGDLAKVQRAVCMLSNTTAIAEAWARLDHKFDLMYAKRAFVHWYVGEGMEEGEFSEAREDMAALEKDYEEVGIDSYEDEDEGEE
T3 sequence (P68371 whole entry): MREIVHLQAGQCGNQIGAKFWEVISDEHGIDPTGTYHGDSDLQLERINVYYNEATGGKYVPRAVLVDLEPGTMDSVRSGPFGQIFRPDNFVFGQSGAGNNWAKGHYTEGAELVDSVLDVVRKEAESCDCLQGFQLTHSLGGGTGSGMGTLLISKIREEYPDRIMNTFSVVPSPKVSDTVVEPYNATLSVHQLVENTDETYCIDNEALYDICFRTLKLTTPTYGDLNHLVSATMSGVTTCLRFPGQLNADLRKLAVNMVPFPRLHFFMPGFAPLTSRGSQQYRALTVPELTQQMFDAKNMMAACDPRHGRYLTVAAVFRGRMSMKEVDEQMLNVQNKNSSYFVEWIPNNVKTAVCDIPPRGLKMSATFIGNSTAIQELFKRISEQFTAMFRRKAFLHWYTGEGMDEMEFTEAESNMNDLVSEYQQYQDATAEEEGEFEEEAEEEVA
The data set can be described thus: Hydrogel based protein pull-down assay, tubulin. In kind it is binding. Conditions: hydrogel 10 mM, HeLa cell lysate, Western blot. As for the experimental part: as §4, §5

The structures appear in SMILES notation.

As usually defined, the viability is a per cent measure of how many cells are alive, often set against a control. A low value points to more harm to the cells.

T1 sequence (P02550 whole entry): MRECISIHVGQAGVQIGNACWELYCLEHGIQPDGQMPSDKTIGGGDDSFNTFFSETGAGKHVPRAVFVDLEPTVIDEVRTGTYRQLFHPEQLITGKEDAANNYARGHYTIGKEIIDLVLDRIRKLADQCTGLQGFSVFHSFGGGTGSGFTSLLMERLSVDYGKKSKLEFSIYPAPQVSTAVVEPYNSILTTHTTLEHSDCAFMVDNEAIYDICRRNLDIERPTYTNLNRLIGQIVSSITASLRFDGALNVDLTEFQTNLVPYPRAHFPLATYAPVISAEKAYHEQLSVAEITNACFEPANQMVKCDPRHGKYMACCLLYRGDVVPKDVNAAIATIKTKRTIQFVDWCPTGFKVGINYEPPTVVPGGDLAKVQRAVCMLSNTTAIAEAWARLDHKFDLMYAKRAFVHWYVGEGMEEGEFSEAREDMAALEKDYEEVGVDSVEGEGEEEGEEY
T1 sequence (P02554 whole entry): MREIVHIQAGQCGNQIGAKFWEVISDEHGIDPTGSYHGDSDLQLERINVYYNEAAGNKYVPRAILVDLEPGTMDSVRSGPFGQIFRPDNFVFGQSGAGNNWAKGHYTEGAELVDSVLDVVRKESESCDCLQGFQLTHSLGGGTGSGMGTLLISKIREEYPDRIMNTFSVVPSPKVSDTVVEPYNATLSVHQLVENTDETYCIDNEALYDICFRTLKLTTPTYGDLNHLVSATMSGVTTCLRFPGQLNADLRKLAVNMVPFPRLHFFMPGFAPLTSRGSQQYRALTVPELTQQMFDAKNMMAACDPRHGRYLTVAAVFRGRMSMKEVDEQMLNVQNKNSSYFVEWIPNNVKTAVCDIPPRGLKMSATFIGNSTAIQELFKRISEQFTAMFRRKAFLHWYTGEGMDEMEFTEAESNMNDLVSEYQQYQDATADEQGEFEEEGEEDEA

For the molecule `O=C(Cc1ccc2ccccc2c1)N[C@@H](Cc1ccccc1)C(=O)N[C@@H](Cc1ccccc1)C(=O)O` [Compound 1], the “loss of preformed microtubules” value on microtubules is on record as “little notable loss of microtubules”. Besides, the “cytotoxicity towards U87MG” value in the data set with U87MG was “decreases of cell viabilities only observed at 400 and 500 μM”. Also, the “threshold concentration for the formation of molecular aggregates” value in data set [1] lay in the range of 320 to 340 µM. In the data set on HepG2, the “cytotoxicity towards HepG2” value is “decreases of cell viabilities only observed at 400 and 500 μM”. Moreover, the “viability of PC12 cells, constant supply of 1” value with PC12 (400 μM, after 7 days, re-seeded with new medium every 4 days) is reported as “significant loss of cell viability”. Also, in the data set on PC12 (400 and 500 μM), the “toxicity towards PC12” value is reported as “little toxicity”. In [2], the viability at 7 days was > 60%. In addition, the “binding of actin to the aggregates of 1” value at actin is given as “low binding affinity”. Besides, in the data set on HeLa cells, the “concentration at which molecular aggregates exhibit cytotoxicity” value came to 400 µM. Moreover, the “concentration at which molecular aggregates exhibit cytotoxicity, weight/volume” value in the data set with HeLa cells (400 μM converted) is recorded as “about 0.19 mg/mL”. Also, the “cytotoxicity towards HeLa cells” value with HeLa cells (200 and 300 μM, below threshold concentration) was “little cytotoxicity”. In addition, the “cell death of HeLa cells, extended assay” value with HeLa cells (200 or 300 μM, 72 h) is reported as “hardly results in significant cell death”. The “time dependent viability of HeLa cells” value in the data set on HeLa cells (400 and 500 μM) is listed as “little loss of cell viability until after 38 h”. Moreover, in the data set on HeLa cells (400 and 500 μM, medium passed through 0.22 μm PVDF filter), the “cytotoxicity towards HeLa cells after removal of aggregates” value was “largely alleviates the cytotoxicity”. Also, in the data set on HeLa cells (400 and 500 μM, within 48 h, as prepared medium), the “viability of the HeLa cells” value is on record as “less than 20%”. Further, at tubulin, the “binding of tubulin to the aggregates of 1” value is recorded as “higher affinity to the aggregates of 1 than actin does”.

For the origin of these results see patent US10308682B2, “Inhibition of tumor growth with aggregates of small molecules” (BRANDEIS UNIVERSITY, priority 2013, dated 2019).
